Our source for the COX8b expression increase and AC40 values is PubChem BioAssay AID743464 (Broad Institute, 2014).

Each structure is given as a SMILES string. Active and inactive are the calls of the source.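 Rule for the calls: active = fitted curve of COX8b expression increase reaching level 40 at or below the top valid tested dose; inconclusive = flat fit between 30 and 70, or poor fit; inactive = the rest.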

System in the first experiment: not listed separately
In words: change in PGC-1a target gene COX8b expression, dose response, C2C12 myotubes, RT-qPCR, cherry-pick (AID 743464). The note with it: C2C12 myotubes, COX8b mRNA qPCR (delta-delta-Ct); at 6.8 µM (top of the series). Background: Quantitative PCR measures a nucleic acid by following its amplification.
Consider `N#Cc1cc(Oc2cccc3cccnc23)c(-n2nnc3ccccc32)cc1C#N`, for which the COX8b expression increase is -21.9 unspecified (inactive).

Still in this experiment, the particulars now being: C2C12 myotubes, COX8b mRNA qPCR (delta-delta-Ct); at 19.5 µM (top of the series).
Take `Cn1nnnc1SCC(=O)NCc1cccc(C(=O)O)c1`: the COX8b expression increase was -7.14 unspecified (inactive).
The same measure, in the same setting: the same measure for `O=c1[nH]c2ccccc2n1C1CCN(C(c2cc3ccccc3o2)c2nnnn2Cc2ccccc2)CC1` (centres undefined): 12.6 unspecified (inactive); for `COc1ccc(C(=O)Nc2cccc(NC(=O)c3ccc(OC)c(OC)c3)n2)cc1OC`: 7.85 unspecified (inactive).
On the same count and under the same terms, the same measure for `C#CCN(C[C@@H]1[C@@H](OC(=O)NCCCCCC)[C@@H](OC(=O)NCCCCCC)Cn2c(=O)ccc(=O)n21)S(=O)(=O)c1ccc(C)cc1`: 4.23 unspecified (inactive); for `CS(=O)c1nc(-c2ccc(Br)cc2)cc(-c2ccccc2)c1C#N` (centres undefined): 6.29 unspecified (inactive).
Still for that read-out and setting: the same measure for `CC1=C(Cl)C2=NS(=O)(=O)CCN2C=C1Cl`: 6.22 unspecified (inactive); for `O=c1cc(CSc2ccccn2)[nH]c(=O)[nH]1`: -6.81 unspecified (inactive).
In the case of `COC(=O)c1nn(-c2ccccc2)ccc1=O`, the COX8b expression increase was 3.82 unspecified (inactive).
On to `C[C@H](CO)N1C[C@H](C)[C@@H](CN(C)C(=O)C2CCCCC2)Oc2cc(C#Cc3ccncc3)ccc2S1(=O)=O`, for which the COX8b expression increase was 9.62 unspecified (inactive).
As to `OC(c1cc(C(F)(F)F)nc2c(C(F)(F)F)cccc12)C1CCCCN1` (centres undefined), the COX8b expression increase is 1.68 unspecified (inactive).
Still for that read-out and setting: the value for `COCCSc1ccccc1C(=O)Nc1cc(C)on1` was 3.36 unspecified (inactive).
Take `Nc1ncnc(NCc2ccc(F)cc2)c1[N+](=O)[O-]`: the COX8b expression increase was 1.72 unspecified (inactive).
`CCOc1cc(CNC2CCCC2)cc(Cl)c1OCc1ccc(F)cc1`: the COX8b expression increase is 0.737 unspecified (inactive).
The same measure, in the same setting: the value for `Cc1nc2ccccn2c1C(=O)/C=C/c1ccc(F)cc1` was -3.59 unspecified (inactive).
For `COc1ccccc1C#Cc1ccc([C@H]2[C@H](C#N)N(C(=O)C3CCCC3)[C@H]2CO)cc1`, the COX8b expression increase was 21.2 unspecified (inactive).
With `C[C@H](CO)N1C[C@H](C)[C@@H](CN(C)Cc2cccnc2)Oc2cc(C#CC3CCCCC3)ccc2S1(=O)=O`, the COX8b expression increase is 0.89 unspecified (inactive).
Take `O=C(C[C@H]1CC[C@@H](NC(=O)c2ccccc2)[C@H](CO)O1)Nc1ccc(-c2ccccc2)cc1`: the COX8b expression increase is -12.4 unspecified (inactive).
`Cc1nc(Nc2ccc(S(N)(=O)=O)cc2)sc1C(=O)Nc1ccccc1`: the COX8b expression increase was -1.19 unspecified (inactive).
For the compound `CCN(CC(=O)NCc1ccc(Cl)cc1)C(=O)CSCC(=O)Nc1ccc(C)cc1`, the COX8b expression increase is 0.86 unspecified (inactive).
Take `C[C@H]1CN([C@@H](C)CO)S(=O)(=O)c2ccc(-c3ccccc3)cc2O[C@@H]1CN(C)Cc1cccc(F)c1`: the COX8b expression increase is -3.3 unspecified (inactive).
Regarding `Cc1cc(C)cc(OC(=O)CS(=O)c2ccc(C(F)(F)F)cc2[N+](=O)[O-])c1` (centres undefined), the COX8b expression increase is -6.23 unspecified (inactive).
As to `CC[C@H](C)[C@H](NC(=O)c1ccc(Cl)cc1)C(=O)OCC(=O)c1ccc2c(c1)NC(=O)CO2`, the COX8b expression increase is -1.89 unspecified (inactive).
As for `Cc1ccc(-c2nc(NC(=O)c3nn(C)cc3[N+](=O)[O-])sc2C)cc1`, the COX8b expression increase was 8.83 unspecified (inactive).
For the compound `CCN1CCN(Cc2ccc(NC(=O)c3ccc(C)c(NC(=O)c4c[nH]c5cc(C(F)(F)F)ccc5c4=O)c3)cc2C(F)(F)F)CC1`, the COX8b expression increase is 15.7 unspecified (inactive).
In the case of `Cc1ccccc1-n1nnnc1Sc1nnnn1-c1ccccc1`, the COX8b expression increase was 9.68 unspecified (inactive).
For the compound `CCN1CCN(Cc2ccc(NC(=O)c3cc(NC(=O)c4cncc(-c5ccc(C#N)cc5)c4)cc(OC)c3)cc2C(F)(F)F)CC1`, the COX8b expression increase is -3 unspecified (inactive).
For `Cc1cc2c(c(/C=C/C(=O)c3ccccc3)c1)OC1(C=C2)Oc2ccccc2C(=O)N1C` (centres undefined), the COX8b expression increase was 21.7 unspecified (inactive).

For another experiment, the system named is C2C12 myotubes, COX8b mRNA qPCR (delta-delta-Ct). The description is as above.
Settings: not given
In the case of `Cc1ccc(Cn2ncc(Cl)c(Cl)c2=O)cc1`, the AC40 was > 19.5 µM (inactive).
Still for that read-out and setting: the value for `C=CS(=O)(=O)N(Cc1ccccc1Br)[C@H](CO)Cc1ccccc1` was > 19.5 µM (inactive).
As to `Cc1ccc(-c2ccc(C3[C@@H]4CN(C(=O)Nc5ccc(C(F)(F)F)cc5)C[C@H]3N4)cc2)cc1` (some centres undefined), the AC40 is > 19.5 µM (inactive).
The same measure, in the same setting: the same measure for `Cc1ccc(S(=O)(=O)N(C)C[C@@H]2Oc3cc(C#Cc4ccncc4)ccc3S(=O)(=O)N([C@H](C)CO)C[C@H]2C)cc1`: > 19.5 µM (inactive); for `O=C(Nc1ccc(C(F)(F)F)cc1)N1C[C@@H]2N[C@H](C1)C2c1ccc(-c2ccccc2)cc1` (some centres undefined): > 19.5 µM (inactive); for `CCCN(CC)c1ncnc2[nH]ncc12`: 17.5 µM.
In the case of `Cc1ccc(S(=O)(=O)N(C)C[C@@H]2Oc3cc(C#Cc4ccncc4)ccc3S(=O)(=O)N([C@@H](C)CO)C[C@H]2C)cc1`, the AC40 is > 19.5 µM (inactive).
In the case of `Cc1ccc(S(=O)(=O)N(C)C[C@H]2Oc3cc(C#Cc4ccncc4)ccc3S(=O)(=O)N([C@H](C)CO)C[C@H]2C)cc1`, the AC40 was 19.3 µM.
Turning to `CCn1nc(/C=C/c2ccccc2)nc2c(=O)n(C)c(=O)nc1-2`, the AC40 was 0.78 µM.
Same read-out and setting: the value for `COc1ccccc1C#Cc1ccc2c(c1)O[C@@H](CN(C)Cc1cccnc1)[C@H](C)CN([C@H](C)CO)S2(=O)=O` was > 19.5 µM (inactive); that for `CCOC(=O)c1c2c(n(C)c1C)C(=O)C(=O)c1ccc(Br)cc1-2` was 16.8 µM; that for `Cc1cccc(NC(=O)CNC(=O)Cn2ncc(Cl)c(Cl)c2=O)c1C` was > 19.5 µM (inactive).
Same read-out and setting: the same measure for `O=C(Nc1ccc(N2CCN(Cc3ccccc3F)CC2)cc1)c1ccc([N+](=O)[O-])o1`: 10.4 µM; for `O=C(Nc1cccc(F)c1)N1CC(=O)N2[C@@H](CO)[C@@H](c3ccc(C#Cc4cccnc4)cc3)[C@@H]2C1`: > 19.5 µM (inactive).
Regarding `COc1ccccc1-c1ccc([C@@H]2[C@@H]3CN(S(=O)(=O)c4ccc(-c5ccccc5)cc4)C[C@H]2N3)cc1`, the AC40 is > 19.5 µM (inactive).
Take `N#Cc1ccc(-c2ccc(C3[C@@H]4CN(S(=O)(=O)c5ccc(F)cc5)C[C@H]3N4)cc2)cc1` (some centres undefined): the AC40 was > 19.5 µM (inactive).
